“And” between values parts separate entries of the source, which are not always exact repeats. Equal values may be shown once.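 Following 48 hours of exposure in 96-well plates, responses at five concentrations were used to interpolate endpoints linearly. Abbreviation: GI50, concentration required for 50% inhibition of growth. TGI denotes the concentration required for complete inhibition of growth.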
Experiments:
Experiment in all cases: NCI-60 cell line screen, 48 h
CAKI-1 renal = tested on: CAKI-1 renal
OVCAR-3 ovarian = tested on: OVCAR-3 ovarian
NCI-H460 lung = tested on: NCI-H460 lung
HCT-116 colon = tested on: HCT-116 colon
SK-MEL-5 melanoma = tested on: SK-MEL-5 melanoma
M14 melanoma = tested on: M14 melanoma
PC-3 prostate = tested on: PC-3 prostate
MDA-MB-231 breast = tested on: MDA-MB-231 breast
T-47D breast = tested on: T-47D breast
KM12 colon = tested on: KM12 colon

Compound	TGI (CAKI-1 renal)	TGI (OVCAR-3 ovarian)	TGI (NCI-H460 lung)	TGI (HCT-116 colon)	TGI (SK-MEL-5 melanoma)	TGI (M14 melanoma)	GI50 (CAKI-1 renal)	GI50 (PC-3 prostate)	TGI (PC-3 prostate)	GI50 (OVCAR-3 ovarian)	GI50 (NCI-H460 lung)	GI50 (MDA-MB-231 breast)	TGI (MDA-MB-231 breast)	GI50 (HCT-116 colon)	GI50 (SK-MEL-5 melanoma)	GI50 (T-47D breast)	TGI (T-47D breast)	GI50 (KM12 colon)	TGI (KM12 colon)	GI50 (M14 melanoma)
Cc1ccc(/C=C2\CCCCC2=O)cc1	> 100 µM	> 100 µM	> 100 µM	> 100 µM	> 100 µM	> 100 µM	–	–	–	–	–	–	–	–	–	–	–	–	–	–
Cc1c(C(=O)Nc2ccc(N3C[C@@H](C)O[C@@H](C)C3)nc2)cccc1-c1ccc(OC(F)(F)F)cc1	26.3 µM and 23.3 µM	24 µM and 24.2 µM	> 68.6 µM and 83.7 µM	> 100 µM	20.8 µM and 38.3 µM	> 100 µM	3.86 µM and 3.89 µM	5.44 µM and 6.68 µM	27 µM and 36.8 µM	6.23 µM and 5.13 µM	8.67 µM and 6.79 µM	5.91 µM and 11.8 µM	21.4 µM and 31.3 µM	3.4 µM and 3.85 µM	3.83 µM and 5.23 µM	2.69 µM and 2.41 µM	25.2 µM and 17.6 µM	12.7 µM and 9.64 µM	59 µM and 50.4 µM	14.4 µM and 19.3 µM
Cc1cc(I)cc(CN(C)CCCN2CCC(C)CC2)c1O	28.7 µM	28.1 µM	25 µM	22.1 µM	17.2 µM	26.8 µM	13.5 µM	14.1 µM	29.7 µM	13.7 µM	12.5 µM	15.1 µM	32 µM	10.4 µM	4.98 µM	15.8 µM	40.7 µM	13.1 µM	27.9 µM	13.7 µM
c1ccc2c(N=NSc3ncnc4nc[nH]c34)c3ccccc3nc2c1	7.07 µM	8.78 µM	5.67 µM	11.6 µM	2.39 µM	4.12 µM	1.76 µM	1.63 µM	8.04 µM	2.43 µM	0.877 µM	1.24 µM	6.11 µM	0.53 µM	1.16 µM	1.44 µM	11 µM	1.61 µM	10.7 µM	1.7 µM
Clc1cnc(Nc2ccc(OCCN3CCCC3)cc2)nc1NCc1ccco1	26.6 µM	9.75 µM	5.36 µM	28.6 µM	3.42 µM	9.55 µM	1.63 µM	2.66 µM	8.53 µM	3.01 µM	2.04 µM	2.48 µM	13.5 µM	2.56 µM	1.62 µM	3.14 µM	10.6 µM	0.643 µM	10.1 µM	2.46 µM
CN1CCN(Cc2ccc(NC(=O)c3cncc(C#Cc4ccc(N)nc4)c3)cc2C(F)(F)F)CC1	2.09 µM	7.88 µM	5.86 µM	3.9 µM	3.24 µM	1.63 µM	0.312 µM	1.58 µM	8.3 µM	1.72 µM	0.988 µM	0.634 µM	1.71 µM	0.596 µM	1.17 µM	1.35 µM	7.14 µM	0.0227 µM	5.3 µM	0.486 µM
Cc1ccsc1C(NC(=O)c1ccccc1)c1cc(Cl)c2cccnc2c1O (centres undefined)	14.9 µM	12.1 µM	2.03 µM	13.1 µM	5.14 µM	9.43 µM	0.495 µM	0.45 µM	16.6 µM	0.354 µM	0.341 µM	0.675 µM	18.7 µM	0.431 µM	0.583 µM	0.426 µM	7.3 µM	0.493 µM	16 µM	0.892 µM
CN1C(=O)N(C)C2C1NC(=S)N2/N=C/C=C/c1ccccc1[N+](=O)[O-] (centres undefined)	> 100 µM	> 100 µM	> 100 µM	> 100 µM	> 100 µM	> 100 µM	1.46 µM	0.967 µM	> 100 µM	0.344 µM	0.701 µM	5.02 µM	> 100 µM	0.634 µM	0.753 µM	> 100 µM	> 100 µM	0.774 µM	> 100 µM	0.92 µM
O=[N+]([O-])c1ccc2c(c1)C(N1CCN(CCO)CC1)Cc1ccc(F)cc1S2 (centres undefined)	26.3 µM	54.6 µM	27.3 µM	19.7 µM	3.48 µM	–	–	–	15.4 µM	–	–	–	28.2 µM	–	–	–	37.6 µM	–	21.4 µM	–
CN(C(=O)C(C)(C)C)c1ccccc1I(=O)=O	> 100 µM	> 100 µM	> 100 µM	–	> 100 µM	–	> 100 µM	–	–	> 100 µM	> 100 µM	> 100 µM	> 100 µM	–	74.1 µM	38.3 µM	> 100 µM	> 100 µM	> 100 µM	–
CC(C)N1CC2CC(CN(C(=O)c3ccc(Cl)cc3)C2)C1	> 100 µM	> 100 µM	> 100 µM	–	> 100 µM	> 100 µM	–	–	–	–	–	–	–	–	–	–	–	–	> 100 µM	–
Oc1c(C(Nc2ccccn2)c2ccccc2)ccc2cccnc12 (centres undefined)	> 87.4 µM	12.4 µM	–	21.3 µM	15.5 µM	> 52.6 µM	–	–	30.3 µM	–	–	–	16.4 µM	–	–	–	> 31.6 µM	–	> 100 µM	–
CCCCCCCCCC1CC(=O)OC2=C1C(=O)CCC2 (centres undefined)	> 100 µM	> 100 µM	> 100 µM	> 100 µM	> 100 µM	> 100 µM	–	–	–	–	–	–	–	–	–	–	–	–	> 100 µM	–
COc1ccc(N=NC2=C(O)CCC2=O)cc1	> 100 µM	> 100 µM	> 100 µM	> 100 µM	> 100 µM	> 100 µM	–	–	–	–	–	–	–	–	–	–	–	–	> 100 µM	–
CCCCCCC(=O)NC1=C(N2CC2)C(=O)C(NC(=O)CCCCCC)=C(N2CC2)C1=O	> 100 µM	4.85 µM	> 100 µM	–	–	> 100 µM	1.93 µM	1.61 µM	> 100 µM	1.53 µM	0.677 µM	3.89 µM	> 100 µM	–	–	3.45 µM	> 100 µM	3.12 µM	> 100 µM	2.25 µM

Source: PubChem BioAssay (NCI)
